Data: patent publication US8193184B2, “Substituted sulphonamides, process for their preparation, pharmaceutical composition comprising thereof and their use” (Unimed Pharma, SPOL, S.R.O., priority 2007, dated 2012)
Values joined by “and” are separate entries in the source; they are usually repeats but may differ in a detail not shown here. Equal entries are not always repeated. Structures can show the parent of a compound that is named as a salt.

How the values were obtained:
[1] = system: intraocular pressure; experiment: Intraocular pressure changes in vivo after application into the conjunctiva sac (Tono-Pen XL); parameters: species or system rabbit (Chinchilla); settings: for Measured intraocular pressure values, RE, 0.5 h / Measured intraocular pressure values, RE, 0.5 h, Average / Measured intraocular pressure values, RE, 1 h, Average / Measured intraocular pressure values, RE, 1 h / Measured intraocular pressure values, RE, 4 h, Average / Measured intraocular pressure values, RE, 4 h / Measured intraocular pressure values, RE, 7 h, Average / Measured intraocular pressure values, RE, 7 h / Measured intraocular pressure values, RE, 25 h, Average / Measured intraocular pressure values, RE, 25 h / Measured intraocular pressure values, RE, 31 h, Average / Measured intraocular pressure values, RE, 31 h: treated right eye
Method: The basic pharmacologic profile of the compounds of the general formula (I), which was focused on the determination of the intraocular pressure changes, was evaluated in in vivo conditions. In addition to the main potential therapeutic effect, related side responses were also monitored. In the experiments the laboratory animals of chinchilla species were used, because the normotension eye of this animal species provides the best reactivity. Adult male Chinchilla (in the age of one to one and half year), of 2000-3500 g, examined by veterinarian, without disease symptoms, grown under the standard conditions was used as the animal model. The solutions of tested compounds of the general formula (I) were always freshly prepared. The distilled water was used as a control. Measurement apparatus Tono-Pen®XL from Medtronic XOMED was used for measurement of the intraocular pressure. The intraocular pressure values were expressed in mmHg. At the first day of the experiment the solutions of the tested compounds of the general formula (I) were applied twice a day, specifically at 8.00 a.m. and 2.00 p.m. At the second day of the experiment the application was still in the 30th hour (i.e. at the second day at 2.00 p.m.). The solution of each compound was always applied in an amount of 2 drops into the right conjunctiva sac. The left eye served as a control. Into the conjunctiva sac of this eye (left), the same number of drop (2 drops) of distilled water was applied. The distilled water served as placebo. […] Standard requirements were kept in all measurements. The measurements started in the morning at 7.00 a.m. The measurement was accomplished with Tono-Pen® XL apparatus by soft perpendicular touch of the probe to the cornea of the rabbit five times successively. The measurement was accomplished on the both cornea (right and left eyes) before administration of the sample. Thus the normal values of the intraocular pressure for both the right and left eyes were obtained. Then at 8.00 a.m. 2 drops of tested compound were applied in the right eye and 2 drops of the distilled water were applied in the left eye. Further measurements were carried out after half an hour (at 8.30 a.m.), after one hour (at 9.00 a.m.), after four hours (at 12.00), after seven hours (at 3.00 p.m.), after 25 hours (on the second day at 9.00 a.m.) and after 31 hours from the application in the right eye (on the second day at 3.00 p.m). […] Moreover, 2 drops of the tested compound in the right eye and 2 drops of distilled water in the left eye were applied again in the same group of the rabbits in the first day at 2.00 p.m. (i.e. 6 hours after application of the first dose of the compound) and in the second day of the experiment at 2.00 p.m. (i.e. in the 30th hour of the experiment). Thus the changes caused by the repeated administration of the compound can be monitored. For each compound and each concentration 10 independent assays were carried out.

Structure (SMILES): CCN(CC)CCCNC(=O)c1ccc(S(N)(=O)=O)cc1 (as salt: ammonium) [II-4, 4-Sulfamoyl-N—(N,N-diethylaminopropyl)benzamide]
- melting point: 122 to 123 °C

Structure (SMILES): NS(=O)(=O)c1ccc(S(=O)(=O)NCCCN2CCOCC2)cc1 [Compound I-6, N-(Morpholinopropyl)benzene-1,4-bis(sulphonamide)]
- Measured intraocular pressure values, RE, 0.5 h ([1]; I-6 2% solution, 2 drops, 0.5 h after application, individual animals n 1-10, RE average before application (N) 12.9): 7 mmHg (2×) and 8 mmHg and 9 mmHg (4×) and 11 mmHg and 12 mmHg and 15 mmHg
- Measured intraocular pressure values, RE, 0.5 h, Average ([1]; I-6 2%, 0.5 h, average of 10, N RE average 12.9): 9.6 mmHg
- Measured intraocular pressure values, RE, 1 h, Average ([1]; I-6 2%, 1 h, average of 10, N RE average 12.9): 10.3 mmHg
- Measured intraocular pressure values, RE, 1 h ([1]; I-6 2%, 1 h, individual animals, N RE average 12.9): 9 mmHg (3×) and 8 mmHg (2×) and 14 mmHg and 11 mmHg and 10 mmHg and 13 mmHg and 12 mmHg
- Measured intraocular pressure values, RE, 4 h, Average ([1]; I-6 2%, 4 h, average of 10, N RE average 12.9): 8.4 mmHg
- Measured intraocular pressure values, RE, 4 h ([1]; I-6 2%, 4 h, individual animals, N RE average 12.9): 6 mmHg and 8 mmHg (3×) and 9 mmHg and 12 mmHg (2×) and 7 mmHg (3×)
- Measured intraocular pressure values, RE, 7 h, Average ([1]; I-6 2%, 7 h (second dose at 6 h), average of 10, N RE average 12.9): 7.3 mmHg
- Measured intraocular pressure values, RE, 7 h ([1]; I-6 2%, 7 h (second dose at 6 h), individual animals, N RE average 12.9): 8 mmHg (3×) and 10 mmHg (2×) and 5 mmHg (2×) and 6 mmHg (2×) and 7 mmHg
- Measured intraocular pressure values, RE, 25 h, Average ([1]; I-6 2%, 25 h, average of 10, N RE average 12.9): 10.7 mmHg
- Measured intraocular pressure values, RE, 25 h ([1]; I-6 2%, 25 h, individual animals, N RE average 12.9): 9 mmHg (4×) and 12 mmHg (4×) and 15 mmHg and 8 mmHg
- Measured intraocular pressure values, RE, 31 h, Average ([1]; I-6 2%, 31 h (dose at 30 h), average of 10, N RE average 12.9): 10.4 mmHg
- Measured intraocular pressure values, RE, 31 h ([1]; I-6 2%, 31 h (dose at 30 h), individual animals, N RE average 12.9): 10 mmHg (2×) and 9 mmHg (3×) and 11 mmHg (2×) and 13 mmHg and 8 mmHg and 14 mmHg
- Measured intraocular pressure values, RE, 0.5 h ([1]; I-6 2.5% solution, 2 drops, 0.5 h, individual animals n 1-10, N RE average 15.3): 11 mmHg (2×) and 10 mmHg (3×) and 12 mmHg (2×) and 9 mmHg (2×) and 16 mmHg
- Measured intraocular pressure values, RE, 0.5 h, Average ([1]; I-6 2.5%, 0.5 h, average of 10, N RE average 15.3): 11 mmHg
- Measured intraocular pressure values, RE, 1 h, Average ([1]; I-6 2.5%, 1 h, average of 10, N RE average 15.3): 10.5 mmHg
- Measured intraocular pressure values, RE, 1 h ([1]; I-6 2.5%, 1 h, individual animals, N RE average 15.3): 10 mmHg (2×) and 9 mmHg (5×) and 13 mmHg and 16 mmHg and 11 mmHg
- Measured intraocular pressure values, RE, 4 h, Average ([1]; I-6 2.5%, 4 h, average of 10, N RE average 15.3): 10.1 mmHg
- Measured intraocular pressure values, RE, 4 h ([1]; I-6 2.5%, 4 h, individual animals, N RE average 15.3): 8 mmHg and 9 mmHg (3×) and 11 mmHg (3×) and 10 mmHg (2×) and 13 mmHg
- Measured intraocular pressure values, RE, 7 h, Average ([1]; I-6 2.5%, 7 h (second dose at 6 h), average of 10, N RE average 15.3): 9.6 mmHg
- Measured intraocular pressure values, RE, 7 h ([1]; I-6 2.5%, 7 h (second dose at 6 h), individual animals, N RE average 15.3): 9 mmHg (4×) and 8 mmHg (2×) and 10 mmHg and 11 mmHg and 16 mmHg and 7 mmHg
- Measured intraocular pressure values, RE, 25 h, Average ([1]; I-6 2.5%, 25 h, average of 10, N RE average 15.3): 13 mmHg
- Measured intraocular pressure values, RE, 25 h ([1]; I-6 2.5%, 25 h, individual animals, N RE average 15.3): 12 mmHg (3×) and 13 mmHg (3×) and 15 mmHg (2×) and 14 mmHg and 11 mmHg
- Measured intraocular pressure values, RE, 31 h, Average ([1]; I-6 2.5%, 31 h (dose at 30 h), average of 10, N RE average 15.3): 11.2 mmHg
- Measured intraocular pressure values, RE, 31 h ([1]; I-6 2.5%, 31 h (dose at 30 h), individual animals, N RE average 15.3): 9 mmHg (4×) and 10 mmHg (2×) and 16 mmHg and 13 mmHg and 15 mmHg and 12 mmHg

Structure (SMILES): NS(=O)(=O)c1ccc(C(=O)NCCCN2CCOCC2)cc1 [II-6, 4-Sulfamoyl-N-(morpholinopropyl)benzamide]
- Measured intraocular pressure values, PO, 0.5 h ([1]; II-6 1% solution, 2 drops, treated right eye (PO), 0.5 h, individual animals n 1-10, N PO average 15.8): 8 mmHg and 11 mmHg (2×) and 10 mmHg (3×) and 9 mmHg (2×) and 14 mmHg (2×)
- Measured intraocular pressure values, PO, 0.5 h, Average ([1]; II-6 1%, treated right eye (PO), 0.5 h, average of 10, N PO average 15.8): 10.6 mmHg
- Measured intraocular pressure values, PO, 1 h, Average ([1]; II-6 1%, treated right eye (PO), 1 h, average of 10, N PO average 15.8): 10.4 mmHg
- Measured intraocular pressure values, PO, 1 h ([1]; II-6 1%, treated right eye (PO), 1 h, individual animals, N PO average 15.8): 7 mmHg and 10 mmHg (3×) and 14 mmHg and 9 mmHg and 8 mmHg and 12 mmHg (3×)
- Measured intraocular pressure values, PO, 4 h, Average ([1]; II-6 1%, treated right eye (PO), 4 h, average of 10, N PO average 15.8): 9.6 mmHg
- Measured intraocular pressure values, PO, 4 h ([1]; II-6 1%, treated right eye (PO), 4 h, individual animals, N PO average 15.8): 12 mmHg and 10 mmHg and 9 mmHg and 11 mmHg (2×) and 8 mmHg (3×) and 6 mmHg and 13 mmHg
- Measured intraocular pressure values, PO, 7 h, Average ([1]; II-6 1%, treated right eye (PO), 7 h (second dose at 6 h), average of 10, N PO average 15.8): 9.1 mmHg
- Measured intraocular pressure values, PO, 7 h ([1]; II-6 1%, treated right eye (PO), 7 h (second dose at 6 h), individual animals, N PO average 15.8): 8 mmHg (2×) and 9 mmHg (3×) and 11 mmHg and 6 mmHg (2×) and 13 mmHg and 12 mmHg
- Measured intraocular pressure values, PO, 25 h, Average ([1]; II-6 1%, treated right eye (PO), 25 h, average of 10, N PO average 15.8): 13.7 mmHg
- Measured intraocular pressure values, PO, 25 h ([1]; II-6 1%, treated right eye (PO), 25 h, individual animals, N PO average 15.8): 13 mmHg (3×) and 16 mmHg (2×) and 18 mmHg and 12 mmHg (4×)
- Measured intraocular pressure values, PO, 31 h, Average ([1]; II-6 1%, treated right eye (PO), 31 h (dose at 30 h), average of 10, N PO average 15.8): 11.1 mmHg
- Measured intraocular pressure values, PO, 31 h ([1]; II-6 1%, treated right eye (PO), 31 h (dose at 30 h), individual animals, N PO average 15.8): 10 mmHg (3×) and 12 mmHg (2×) and 9 mmHg (2×) and 11 mmHg and 14 mmHg (2×)
